Results reported in PubChem BioAssay AID198 (DTP/NCI, 2004).
“And” between values parts separate entries of the source, which are not always exact repeats. Equal entries are not always repeated. Inconclusive results and toxic doses are left out.

Test system: B16 melanoma ip, C57BL/6 mice, median survival T/C
Assay: NCI In Vivo Anticancer Drug Screen. Data for tumor model B16 Melanoma (intraperitoneal) in C57BL/6 mice
Details: endpoint: median survival time, higher = longer survival
Description: The antitumor activity of compounds was measured in mice bearing transplantable tumors. Survival or tumor size were measured and the results are expressed as the measurement made in the treated group (T) divided by the measurement made in the vehicle treated control group (C). The tumor model used in this assay is B16 Melanoma (intraperitoneal) in C57BL/6 mice

[1] = dose: 12.5 mg/kg/injection, schedule: Q01DX009 (ip), vehicle: saline
[2] = dose: 25.0 mg/kg/injection, schedule: Q01DX009 (ip), vehicle: saline with Tween-80
[3] = dose: 25.0 mg/kg/injection, schedule: Q01DX009 (ip), vehicle: saline
[4] = dose: 50.0 mg/kg/injection, schedule: Q01DX009 (ip), vehicle: saline with Tween-80
[5] = dose: 50.0 mg/kg/injection, schedule: Q01DX009 (ip), vehicle: saline
[6] = dose: 100.0 mg/kg/injection, schedule: Q01DX009 (ip), vehicle: saline with Tween-80
[7] = dose: 100.0 mg/kg/injection, schedule: Q01DX009 (ip), vehicle: saline
[8] = dose: 200.0 mg/kg/injection, schedule: Q01DX009 (ip), vehicle: saline with Tween-80
[9] = dose: 200.0 mg/kg/injection, schedule: Q01DX009 (ip), vehicle: saline
[10] = dose: 0.13 mg/kg/injection, schedule: Q01DX009 (ip), vehicle: saline
[11] = dose: 3.13 mg/kg/injection, schedule: Q01DX009 (ip), vehicle: saline
[12] = dose: 6.25 mg/kg/injection, schedule: Q01DX009 (ip), vehicle: saline
[13] = dose: 31.3 mg/kg/injection, schedule: Q01DX009 (ip), vehicle: saline
[14] = dose: 62.5 mg/kg/injection, schedule: Q01DX009 (ip), vehicle: saline
[15] = dose: 125.0 mg/kg/injection, schedule: Q01DX009 (ip), vehicle: saline
[16] = dose: 250.0 mg/kg/injection, schedule: Q01DX009 (ip), vehicle: saline
[17] = dose: 1.5 mg/kg/injection, schedule: Q01DX009 (ip), vehicle: saline
[18] = dose: 3.0 mg/kg/injection, schedule: Q01DX009 (ip), vehicle: saline
[19] = dose: 0.25 mg/kg/injection, schedule: Q01DX009 (ip), vehicle: saline
[20] = dose: 0.5 mg/kg/injection, schedule: Q01DX009 (ip), vehicle: saline
[21] = dose: 1.0 mg/kg/injection, schedule: Q01DX009 (ip), vehicle: saline

O=C1CN=C(c2ccc[nH]2)c2cc(Cl)ccc2N1 was tested, and the T/C [1] was 107 % of control, the T/C [2] was 107 % of control and the T/C [3] was 105 % of control. The T/C (dose: 50.0 mg/kg/injection, schedule: Q01DX001 (ip), vehicle: saline) was 100 % of control, the T/C [4] was 100 % of control and the T/C [5] was 97 % of control. For the same compound, the T/C (dose: 100.0 mg/kg/injection, schedule: Q01DX001 (ip), vehicle: saline) was 100 % of control, the T/C [6] was 103 % of control and the T/C [7] was 97 % of control. For the same compound, the T/C (dose: 200.0 mg/kg/injection, schedule: Q01DX001 (ip), vehicle: saline) was 97 % of control, the T/C [8] was 107 % of control and the T/C [9] was 112 % of control. The T/C (dose: 400.0 mg/kg/injection, schedule: Q01DX001 (ip), vehicle: saline) was 102 % of control.
For O=CC(S)CO (stereo not drawn), the T/C [3] was 120 % of control and the T/C [5] was 120 % of control.
For Nc1nc(CCl)nc(Nc2ccccc2)n1, the T/C [6] was 96 % of control and the T/C [8] was 100 % of control.
CC[C@]1(O)C[C@H]2CN(CCc3c([nH]c4ccccc34)[C@@](C(=O)OC)(c3cc4c(cc3OC)N(C=O)[C@H]3[C@@](O)(C(=O)OC)[C@H](OC(C)=O)[C@]5(CC)C=CCN6CC[C@]43[C@@H]65)C2)C1 was tested, and the T/C (dose: 0.06 mg/kg/injection, schedule: Q01DX009 (ip), vehicle: saline) was 182 % of control and the T/C [10] was 189 % of control.
For COc1cc([C@@H]2c3cc4c(cc3C[C@H]3COC(=O)[C@@H]32)OCO4)cc(OC)c1OC, the T/C (dose: 6.25 mg/kg/injection, schedule: Q01DX009 (ip), vehicle: saline with Tween-80) was 110 % of control and the T/C (dose: 12.5 mg/kg/injection, schedule: Q01DX009 (ip), vehicle: saline with Tween-80) was 117 % of control.
For NC(Cc1ccc(N(CCCl)CCCl)cc1)C(=O)O (stereo not drawn), the T/C (dose: 4.0 mg/kg/injection, schedule: Q01DX009 (ip), vehicle: saline) was 200 % of control and 268 % of control and 350 % of control.
In the case of CN(C)c1nc(N(C)C)nc(N(C)C)n1, the T/C (dose: 37.5 mg/kg/injection, schedule: Q01DX009 (ip), vehicle: saline) is reported as 100 % of control, the T/C (dose: 75.0 mg/kg/injection, schedule: Q01DX009 (ip), vehicle: saline) is reported as 103 % of control and the T/C (dose: 150.0 mg/kg/injection, schedule: Q01DX009 (ip), vehicle: saline) is reported as 103 % of control. The T/C (dose: 300.0 mg/kg/injection, schedule: Q01DX009 (ip), vehicle: saline) was 103 % of control.
O=C(O)CCCc1ccc(N(CCCl)CCCl)cc1 was tested, and the T/C [11] was 96 % of control and 103 % of control, the T/C [12] was 100 % of control and 114 % of control and the T/C [1] was 106 % of control and 112 % of control. For the same compound, the T/C [3] was 86 % of control.
In the case of CN1C=c2c3c(ccc2=C2C=CC4C=C5OCOC5=CC4=C21)OCO3 (stereo not drawn), the T/C (dose: 1.0 mg/kg/injection, schedule: Q01DX009 (ip), vehicle: saline with Tween-80) is reported as 103 % of control, the T/C (dose: 2.0 mg/kg/injection, schedule: Q01DX009 (ip), vehicle: saline with Tween-80) is reported as 92 % of control and the T/C (dose: 4.0 mg/kg/injection, schedule: Q01DX009 (ip), vehicle: saline with Tween-80) is reported as 96 % of control.
For CCOC(=O)n1cnc2ncnc(SC)c21, the T/C (dose: 15.6 mg/kg/injection, schedule: Q01DX009 (ip), vehicle: saline) was 105 % of control, the T/C [13] was 100 % of control and the T/C [14] was 105 % of control. The T/C [15] was 100 % of control.
O=c1[nH]c(=O)c2n[nH]nc2[nH]1 was tested, and the T/C [14] was 96 % of control, the T/C [15] was 100 % of control and the T/C [16] was 92 % of control. For the same compound, the T/C (dose: 500.0 mg/kg/injection, schedule: Q01DX009 (ip), vehicle: saline) was 92 % of control.
[N-]=[N+]=CC(=O)NCC(=O)NN was tested, and the T/C [5] was 107 % of control, the T/C [7] was 110 % of control and the T/C [9] was 121 % of control. For the same compound, the T/C (dose: 400.0 mg/kg/injection, schedule: Q01DX009 (ip), vehicle: saline) was 117 % of control.
CN(C)CCCN1c2ccccc2Sc2ccc(Cl)cc21 was tested, and the T/C [11] was 100 % of control and 97 % of control, the T/C [12] was 100 % of control and 102 % of control and the T/C [1] was 111 % of control and 105 % of control. The T/C [3] was 100 % of control and 108 % of control.
With OCC1OC(n2cnc3c(Cl)ncnc32)C(O)C1O (stereo not drawn) the T/C [13] was 106 % of control and 107 % of control, the T/C [14] was 93 % of control and 100 % of control and the T/C [15] was 93 % of control and 100 % of control. The T/C [16] was 86 % of control and 100 % of control.
In the case of O=P1(N(CCCl)CCCl)NCCCO1 (stereo not drawn), the T/C [3] is reported as 93 % of control and the T/C [7] is reported as 90 % of control.
With CO[C@H]1/C=C/O[C@@]2(C)Oc3c(C)c(O)c4c(O)c(c(/C=N/N5CCN(C)CC5)c(O)c4c3C2=O)NC(=O)/C(C)=C\C=C\[C@H](C)[C@H](O)[C@@H](C)[C@@H](O)[C@@H](C)[C@H](OC(C)=O)[C@@H]1C the T/C [5] was 106 % of control, the T/C [7] was 109 % of control and the T/C [9] was 112 % of control.
With Cn1c(=O)c2ncnnc2n(C)c1=O the T/C [12] was 106 % of control and the T/C [1] was 103 % of control.
For N[C@@H](Cc1ccc(N(CCCl)CCCl)cc1)C(=O)O, the T/C [17] was 170 % of control and 228 % of control, the T/C [18] was 210 % of control and the T/C (dose: 6.0 mg/kg/injection, schedule: Q01DX009 (ip), vehicle: saline) was 226 % of control. The T/C (dose: 12.0 mg/kg/injection, schedule: Q01DX009 (ip), vehicle: saline) was 93 % of control.
CN(Cc1cnc2nc(N)nc(N)c2n1)c1ccc(C(=O)N[C@@H](CCC(=O)O)C(=O)O)cc1 was tested, and the T/C (dose: 0.38 mg/kg/injection, schedule: Q01DX009 (ip), vehicle: saline) was 100 % of control and 106 % of control, the T/C (dose: 0.75 mg/kg/injection, schedule: Q01DX009 (ip), vehicle: saline) was 100 % of control and 106 % of control and the T/C [17] was 93 % of control and 100 % of control. The T/C [18] was 100 % of control.
CNNCc1ccc(C(=O)NC(C)C)cc1 was tested, and the T/C [5] was 121 % of control, the T/C [7] was 121 % of control and the T/C [9] was 110 % of control and 121 % of control.
C[n+]1c2ccccc2c(Nc2ccc(NS(=O)(=O)CCCCN=C(N)N)cc2)c2ccc(N)cc21 was tested, and the T/C (dose: 0.38 mg/kg/injection, schedule: Q01DX009 (ip), vehicle: water) was 115 % of control, the T/C (dose: 0.75 mg/kg/injection, schedule: Q01DX009 (ip), vehicle: water) was 158 % of control and the T/C (dose: 1.5 mg/kg/injection, schedule: Q01DX009 (ip), vehicle: water) was 151 % of control. The T/C (dose: 3.0 mg/kg/injection, schedule: Q01DX009 (ip), vehicle: water) was 113 % of control and the T/C (dose: 6.0 mg/kg/injection, schedule: Q01DX009 (ip), vehicle: water) was 101 % of control.
In the case of CC[C@H]1CN2CCc3cc(OC)c(OC)cc3[C@@H]2C[C@@H]1C[C@H]1NCCc2cc(OC)c(OC)cc21, the T/C (dose: 1.0 mg/kg/injection, schedule: Q03DX005 (ip), vehicle: saline) is reported as 106 % of control, the T/C (dose: 2.0 mg/kg/injection, schedule: Q03DX005 (ip), vehicle: saline) is reported as 109 % of control and the T/C (dose: 16.0 mg/kg/injection, schedule: Q03DX005 (ip), vehicle: saline) is reported as 87 % of control.
For COc1cccc2c1C(=O)c1c(O)c3c(c(O)c1C2=O)C[C@@](O)(C(C)=O)C[C@@H]3OC1CC(N)C(O)C(C)O1 (stereo partly drawn), the T/C [19] was 177 % of control, the T/C [20] was 188 % of control and the T/C [21] was 277 % of control. The T/C (dose: 2.0 mg/kg/injection, schedule: Q01DX009 (ip), vehicle: saline) was 186 % of control.
In the case of COc1ccc2c3c(c4cc(OC)c(OC)cc4c2c1)C[C@H]1CCCCN1C3, the T/C [10] is reported as 100 % of control, the T/C [19] is reported as 100 % of control and 119 % of control and the T/C [20] is reported as 113 % of control. For the same compound, the T/C [21] was 90 % of control.
With Nc1nc2ncc(CNc3ccc(C(=O)NC(CCC(=O)O)C(=O)O)cc3)nc2c(=O)[nH]1 (stereo not drawn) the T/C [1] was 100 % of control and 103 % of control and the T/C [3] was 97 % of control and 106 % of control.
With CN1CCN(CCCN2c3ccccc3Sc3ccc(C(F)(F)F)cc32)CC1 the T/C [3] was 107 % of control.
COc1cc(N(CCCl)CCCl)ccc1NC(=O)c1ccccc1 was tested, and the T/C (dose: 1.56 mg/kg/injection, schedule: Q01DX009 (ip), vehicle: saline) was 102 % of control, the T/C [11] was 115 % of control and the T/C [12] was 115 % of control.
In the case of CN(C)/N=N/c1nc[nH]c1C(N)=O, the T/C [3] is reported as 116 % of control, the T/C [5] is reported as 120 % of control and the T/C [7] is reported as 150 % of control.
For CCN(CC)CCOc1ccc2c(c1)C(=O)c1cc(OCCN(CC)CC)ccc1-2, the T/C [2] was 103 % of control, the T/C [4] was 92 % of control and the T/C [6] was 114 % of control.
With COc1c(C)c2c(c(O)c1C/C=C(\C)CCC(=O)O)C(=O)OC2 the T/C [3] was 106 % of control, the T/C [5] was 113 % of control and the T/C [7] was 110 % of control. For the same compound, the T/C [9] was 106 % of control.
